Reference: the NIST ThermoML archive (doi:10.1016/j.fluid.2015.10.026)
± gives the expanded uncertainty stated by the source.

Conditions: Brillouin light scattering

CCOC(C)(C)C [2-ethoxy-2-methylpropane]
speed of sound (433.15 K, 920 kPa, Liquid): 454.82 ± 2.7 m/s
speed of sound (433.15 K, 2500 kPa, Liquid): 483.99 ± 2.7 m/s
speed of sound (433.15 K, 4000 kPa, Liquid): 513.28 ± 2.8 m/s
speed of sound (433.15 K, 5500 kPa, Liquid): 541.29 ± 2.9 m/s
speed of sound (433.15 K, 7000 kPa, Liquid): 568 ± 3.2 m/s
speed of sound (433.15 K, 8500 kPa, Liquid): 593.43 ± 3.3 m/s
speed of sound (433.15 K, 10000 kPa, Liquid): 617.57 ± 3.4 m/s
speed of sound (443.15 K, 1150 kPa, Liquid): 409.25 ± 2.4 m/s
speed of sound (443.15 K, 2500 kPa, Liquid): 440.1 ± 2.5 m/s
speed of sound (443.15 K, 4000 kPa, Liquid): 471.64 ± 2.6 m/s
speed of sound (443.15 K, 5500 kPa, Liquid): 501.8 ± 2.8 m/s
speed of sound (443.15 K, 7000 kPa, Liquid): 530.58 ± 3 m/s
speed of sound (443.15 K, 8500 kPa, Liquid): 557.97 ± 3.1 m/s
speed of sound (443.15 K, 10000 kPa, Liquid): 583.97 ± 3.3 m/s
speed of sound (453.15 K, 1420 kPa, Gas): 157.35 ± 1.4 m/s
speed of sound (453.15 K, 1420 kPa, Liquid): 361.97 ± 2.2 m/s
speed of sound (453.15 K, 2500 kPa, Liquid): 395.94 ± 2.3 m/s
speed of sound (453.15 K, 4000 kPa, Liquid): 429.85 ± 2.5 m/s
speed of sound (453.15 K, 5500 kPa, Liquid): 462.29 ± 2.6 m/s
speed of sound (453.15 K, 7000 kPa, Liquid): 493.25 ± 2.9 m/s
speed of sound (453.15 K, 8500 kPa, Liquid): 522.72 ± 3 m/s
speed of sound (453.15 K, 10000 kPa, Liquid): 550.71 ± 3.1 m/s
speed of sound (463.15 K, 1750 kPa, Gas): 149.62 ± 1.5 m/s
speed of sound (463.15 K, 1750 kPa, Liquid): 312.51 ± 2.2 m/s
speed of sound (463.15 K, 2500 kPa, Liquid): 351.51 ± 2.2 m/s
speed of sound (463.15 K, 4000 kPa, Liquid): 387.92 ± 2.3 m/s
speed of sound (463.15 K, 5500 kPa, Liquid): 422.75 ± 2.4 m/s
speed of sound (463.15 K, 7000 kPa, Liquid): 456 ± 2.8 m/s
speed of sound (463.15 K, 10000 kPa, Liquid): 517.77 ± 3 m/s
speed of sound (473.15 K, 2130 kPa, Gas): 140.63 ± 1.4 m/s
speed of sound (473.15 K, 2130 kPa, Liquid): 260.24 ± 2 m/s
speed of sound (473.15 K, 4000 kPa, Liquid): 345.84 ± 2.1 m/s
speed of sound (473.15 K, 5500 kPa, Liquid): 383.18 ± 2.3 m/s
speed of sound (473.15 K, 7000 kPa, Liquid): 418.85 ± 2.7 m/s
speed of sound (473.15 K, 8500 kPa, Liquid): 452.84 ± 2.8 m/s
speed of sound (473.15 K, 10000 kPa, Liquid): 485.16 ± 2.9 m/s
speed of sound (478.15 K, 2340 kPa, Gas): 135.58 ± 1.4 m/s
speed of sound (483.15 K, 2570 kPa, Gas): 130.09 ± 1.5 m/s
speed of sound (483.15 K, 2570 kPa, Liquid): 204.36 ± 1.9 m/s
speed of sound (483.15 K, 4000 kPa, Liquid): 303.61 ± 2 m/s
speed of sound (483.15 K, 5500 kPa, Liquid): 343.59 ± 2.1 m/s
speed of sound (488.15 K, 2820 kPa, Gas): 123.95 ± 2.1 m/s
speed of sound (488.15 K, 2820 kPa, Liquid): 174.7 ± 1.8 m/s
speed of sound (493.15 K, 3090 kPa, Gas): 116.68 ± 1.4 m/s
speed of sound (493.15 K, 3090 kPa, Liquid): 143.64 ± 1.8 m/s
speed of sound (493.15 K, 4000 kPa, Liquid): 261.23 ± 1.9 m/s
speed of sound (493.15 K, 5500 kPa, Liquid): 303.97 ± 2 m/s
speed of sound (511.02 K, 5000 kPa, Fluid (supercritical or subcritical phases)): 203.94 ± 2.6 m/s
speed of sound (511.07 K, 6000 kPa, Fluid (supercritical or subcritical phases)): 251.63 ± 3.1 m/s
speed of sound (511.12 K, 7000 kPa, Fluid (supercritical or subcritical phases)): 292.44 ± 3 m/s
speed of sound (511.26 K, 4000 kPa, Fluid (supercritical or subcritical phases)): 109.41 ± 3 m/s
speed of sound (520.05 K, 4000 kPa, Fluid (supercritical or subcritical phases)): 104.01 ± 1.7 m/s
speed of sound (521 K, 5000 kPa, Fluid (supercritical or subcritical phases)): 155.15 ± 2.2 m/s
speed of sound (521.16 K, 6000 kPa, Fluid (supercritical or subcritical phases)): 217.02 ± 3.6 m/s
speed of sound (521.29 K, 7000 kPa, Fluid (supercritical or subcritical phases)): 264.62 ± 3.3 m/s
speed of sound (529.5 K, 4000 kPa, Fluid (supercritical or subcritical phases)): 118.19 ± 1.2 m/s
speed of sound (530.2 K, 5000 kPa, Fluid (supercritical or subcritical phases)): 132.08 ± 1.6 m/s
speed of sound (530.73 K, 6000 kPa, Fluid (supercritical or subcritical phases)): 183.76 ± 3.4 m/s
speed of sound (530.99 K, 7000 kPa, Fluid (supercritical or subcritical phases)): 234.87 ± 3.6 m/s
speed of sound (540.45 K, 4000 kPa, Fluid (supercritical or subcritical phases)): 134.27 ± 1.2 m/s
speed of sound (541.14 K, 5000 kPa, Fluid (supercritical or subcritical phases)): 128.78 ± 1.2 m/s
speed of sound (541.48 K, 6000 kPa, Fluid (supercritical or subcritical phases)): 158.8 ± 2.7 m/s
speed of sound (541.85 K, 7000 kPa, Fluid (supercritical or subcritical phases)): 208.25 ± 3.4 m/s
speed of sound (550 K, 5000 kPa, Fluid (supercritical or subcritical phases)): 134.46 ± 1.2 m/s
speed of sound (550.06 K, 4000 kPa, Fluid (supercritical or subcritical phases)): 147.6 ± 1.3 m/s
speed of sound (550.44 K, 6000 kPa, Fluid (supercritical or subcritical phases)): 144.68 ± 2 m/s
speed of sound (550.58 K, 7000 kPa, Fluid (supercritical or subcritical phases)): 188.75 ± 3.2 m/s
speed of sound (561.04 K, 4000 kPa, Fluid (supercritical or subcritical phases)): 161.59 ± 1.4 m/s
speed of sound (561.29 K, 5000 kPa, Fluid (supercritical or subcritical phases)): 145.73 ± 1.3 m/s
speed of sound (561.65 K, 6000 kPa, Fluid (supercritical or subcritical phases)): 145.52 ± 1.5 m/s
speed of sound (561.96 K, 7000 kPa, Fluid (supercritical or subcritical phases)): 176.1 ± 2.4 m/s
speed of sound (571.2 K, 6000 kPa, Fluid (supercritical or subcritical phases)): 152.92 ± 1.3 m/s
speed of sound (571.28 K, 7000 kPa, Fluid (supercritical or subcritical phases)): 169.79 ± 1.7 m/s
speed of sound (571.33 K, 5000 kPa, Fluid (supercritical or subcritical phases)): 158.34 ± 1.3 m/s
speed of sound (571.72 K, 4000 kPa, Fluid (supercritical or subcritical phases)): 172.96 ± 1.4 m/s
speed of sound (579.57 K, 7000 kPa, Fluid (supercritical or subcritical phases)): 169.78 ± 1.4 m/s
speed of sound (579.66 K, 6000 kPa, Fluid (supercritical or subcritical phases)): 163.68 ± 1.3 m/s
speed of sound (579.91 K, 5000 kPa, Fluid (supercritical or subcritical phases)): 170.18 ± 1.3 m/s
speed of sound (580.22 K, 4000 kPa, Fluid (supercritical or subcritical phases)): 182.55 ± 1.4 m/s
speed of sound (590.12 K, 4000 kPa, Fluid (supercritical or subcritical phases)): 194.12 ± 1.4 m/s
speed of sound (590.27 K, 7000 kPa, Fluid (supercritical or subcritical phases)): 175.32 ± 1.3 m/s
speed of sound (590.38 K, 5000 kPa, Fluid (supercritical or subcritical phases)): 185.11 ± 1.4 m/s
speed of sound (590.39 K, 6000 kPa, Fluid (supercritical or subcritical phases)): 178.89 ± 1.4 m/s
speed of sound (601.53 K, 7000 kPa, Fluid (supercritical or subcritical phases)): 188.12 ± 1.4 m/s
speed of sound (601.7 K, 6000 kPa, Fluid (supercritical or subcritical phases)): 193.21 ± 1.4 m/s
speed of sound (602.16 K, 5000 kPa, Fluid (supercritical or subcritical phases)): 199.29 ± 1.4 m/s
speed of sound (602.86 K, 4000 kPa, Fluid (supercritical or subcritical phases)): 207.43 ± 1.5 m/s
speed of sound (611.06 K, 7000 kPa, Fluid (supercritical or subcritical phases)): 202.27 ± 1.5 m/s
speed of sound (611.36 K, 6000 kPa, Fluid (supercritical or subcritical phases)): 206.2 ± 1.5 m/s
speed of sound (611.87 K, 5000 kPa, Fluid (supercritical or subcritical phases)): 211.58 ± 1.5 m/s
speed of sound (612.81 K, 4000 kPa, Fluid (supercritical or subcritical phases)): 217.85 ± 1.5 m/s
speed of sound (622.53 K, 7000 kPa, Fluid (supercritical or subcritical phases)): 213.01 ± 1.5 m/s
speed of sound (622.84 K, 6000 kPa, Fluid (supercritical or subcritical phases)): 217.4 ± 1.5 m/s
speed of sound (623.38 K, 5000 kPa, Fluid (supercritical or subcritical phases)): 222.38 ± 1.5 m/s
speed of sound (623.94 K, 4000 kPa, Fluid (supercritical or subcritical phases)): 226.9 ± 1.5 m/s
speed of sound (631.83 K, 7000 kPa, Fluid (supercritical or subcritical phases)): 218.09 ± 1.5 m/s
speed of sound (632.32 K, 6000 kPa, Fluid (supercritical or subcritical phases)): 223.19 ± 1.5 m/s
speed of sound (633.27 K, 5000 kPa, Fluid (supercritical or subcritical phases)): 228.01 ± 1.5 m/s
speed of sound (634.19 K, 4000 kPa, Fluid (supercritical or subcritical phases)): 232.56 ± 1.5 m/s
speed of sound (643.79 K, 7000 kPa, Fluid (supercritical or subcritical phases)): 224.46 ± 1.5 m/s
speed of sound (643.86 K, 6000 kPa, Fluid (supercritical or subcritical phases)): 228.16 ± 1.5 m/s
speed of sound (644.48 K, 5000 kPa, Fluid (supercritical or subcritical phases)): 232.66 ± 1.5 m/s
speed of sound (645.27 K, 4000 kPa, Fluid (supercritical or subcritical phases)): 236.85 ± 1.6 m/s
speed of sound (653.83 K, 6000 kPa, Fluid (supercritical or subcritical phases)): 231.78 ± 1.6 m/s
speed of sound (653.89 K, 7000 kPa, Fluid (supercritical or subcritical phases)): 228.08 ± 1.5 m/s
speed of sound (654.31 K, 5000 kPa, Fluid (supercritical or subcritical phases)): 235.93 ± 1.6 m/s
speed of sound (654.75 K, 4000 kPa, Fluid (supercritical or subcritical phases)): 239.86 ± 1.6 m/s
speed of sound (665 K, 6000 kPa, Fluid (supercritical or subcritical phases)): 234.24 ± 1.6 m/s
speed of sound (665.08 K, 4000 kPa, Fluid (supercritical or subcritical phases)): 242.03 ± 1.6 m/s
speed of sound (665.1 K, 5000 kPa, Fluid (supercritical or subcritical phases)): 237.76 ± 1.6 m/s
speed of sound (665.1 K, 7000 kPa, Fluid (supercritical or subcritical phases)): 230.39 ± 1.5 m/s
